Data taken from patent US8329645B2, “Polymyxin derivatives and uses thereof” (priority 2008, dated 2012).

Tests used:
[1] = system: A. baumannii F264; assay: E-test MIC of antibiotics on Mueller Hinton agar containing increasing concentrations of NAB739; type: cell-based, Acinetobacter baumannii
[2] = system: P. aeruginosa F58; assay: E-test MIC with or without NAB7061 (4 μg/ml), Mueller-Hinton agar; type: cell-based, Pseudomonas aeruginosa
Experimental: (§1) MICs were determined by using E-strips (Biodisk Ltd., Solna, Sweden) according to the manufacturer's instructions.
(§2) The strains originated from ATCC (11 strains), CCUG (11 strains), and NCTC (The National Collection of Type Cultures, Colindale, U.K.; 2 strains). Eight strains (the F-strains) were purchased from Mobidiag Ltd., Helsinki, Finland.

[3] = system: P. aeruginosa CCUG51971; assay: as above; type: cell-based, Pseudomonas aeruginosa
Experimental: as §1, §2

[4] = system: P. aeruginosa ATCC27853; assay: as above; type: cell-based, Pseudomonas aeruginosa
Experimental: as §1, §2

[5] = system: P. vulgaris ATCC13315; assay: as above; type: cell-based
Experimental: as §1, §2

[6] = system: S. maltophilia ATCC17444; assay: as above; type: cell-based
Experimental: as §1, §2

[7] = system: S. marcescens ATCC8100; assay: as above; type: cell-based, Serratia marcescens
Experimental: as §1, §2

[8] = system: C. freundii ATCC8090; assay: as above; type: cell-based, Citrobacter freundii
Experimental: as §1, §2

[9] = system: K. pneumoniae ATCC13883; conditions: K. pneumoniae ATCC13883
Procedure, shortened: (§3)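 MICs were read from antibiotic gradient strips applied according to the manufacturer's instructions.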

[10] = system: E. coli ATCC25922; conditions: E. coli ATCC25922
Procedure, shortened: as §3

[11] = system: P. aeruginosa ATCC 27853; assay: E-test MIC of antibiotics on Mueller Hinton agar containing increasing concentrations of NAB739; type: cell-based, Pseudomonas aeruginosa
[12] = system: K. pneumoniae F136; assay: E-test MIC with or without NAB7061 (4 μg/ml), Mueller-Hinton agar; type: cell-based, Klebsiella pneumoniae
Experimental: as §1, §2

[13] = system: K. pneumoniae F145; assay: as above; type: cell-based, Klebsiella pneumoniae
Experimental: as §1, §2

[14] = system: K. pneumoniae CCUG45421; assay: as above; type: cell-based, Klebsiella pneumoniae
Experimental: as §1, §2

[15] = system: K. pneumoniae F144; assay: as above; type: cell-based, Klebsiella pneumoniae
Experimental: as §1, §2

[16] = system: P. mirabilis ATCC29906; assay: as above; type: cell-based, Proteus mirabilis
Experimental: as §1, §2

[17] = system: E. coli IH3080; assay: Sensitization to rifampin: growth inhibition around wells on LB plates containing rifampin; type: cell-based, Escherichia coli; conditions: in the absence of the compounds tested
[18] = system: Ac. baumannii F263; assay: E-test MIC with or without NAB7061 (4 μg/ml), Mueller-Hinton agar; type: cell-based, Acinetobacter baumannii; conditions: Ac. baumannii F263
Experimental: as §1, §2

[19] = system: Ac. baumannii F264; assay: as above; type: cell-based, Acinetobacter baumannii; conditions: Ac. baumannii F264
Experimental: as §1, §2

[20] = system: Ac. baumannii ATCC19606; assay: as above; type: cell-based, Acinetobacter baumannii; conditions: Ac. baumannii ATCC19606
Experimental: as §1, §2

[21] = system: both Acinetobacter strains (ATCC 19606 and F264); assay: E-test sensitization by NAB739, both strains; type: cell-based, Acinetobacter baumannii
[22] = system: E. coli CCUG41421; assay: E-test MIC with or without NAB7061 (4 μg/ml), Mueller-Hinton agar; type: cell-based, Escherichia coli
Procedure, shortened: as §3

[23] = system: E. coli CCUG41427; assay: as above; type: cell-based, Escherichia coli
Procedure, shortened: as §3

[24] = system: E. coli CCUG41425; assay: as above; type: cell-based, Escherichia coli
Procedure, shortened: as §3

[25] = system: E. coli CCUG41424; assay: as above; type: cell-based, Escherichia coli
Procedure, shortened: as §3

[26] = system: E. coli CCUG41422; assay: as above; type: cell-based, Escherichia coli
Procedure, shortened: as §3

[27] = system: E. coli IH3080; assay: as above; type: cell-based, Escherichia coli
Procedure, shortened: as §3

[28] = system: E. coli NCTC13353; assay: as above; type: cell-based, Escherichia coli
Procedure, shortened: as §3

[29] = system: E. coli CCUG41429; assay: as above; type: cell-based, Escherichia coli
Procedure, shortened: as §3

[30] = system: E. coli NCTC13351; assay: as above; type: cell-based, Escherichia coli
Procedure, shortened: as §3

[31] = system: E. coli CCUG41432; assay: as above; type: cell-based, Escherichia coli
Procedure, shortened: as §3

[32] = system: A. baumannii ATCC19606; assay: E-test MIC of antibiotics on Mueller Hinton agar containing increasing concentrations of NAB739; type: cell-based, Acinetobacter baumannii
[33] = system: K. oxytoca CCUG51683; assay: E-test MIC with or without NAB7061 (4 μg/ml), Mueller-Hinton agar; type: cell-based, Klebsiella oxytoca
Experimental: as §1, §2

[34] = system: K. oxytoca ATCC13182; assay: as above; type: cell-based, Klebsiella oxytoca
Experimental: as §1, §2

[35] = system: E. cloacae CCUG52947; assay: as above; type: cell-based, Enterobacter cloacae
Procedure, shortened: as §3

[36] = system: E. cloacae F232; assay: as above; type: cell-based, Enterobacter cloacae
Procedure, shortened: as §3

[37] = system: E. cloacae F230; assay: as above; type: cell-based, Enterobacter cloacae
Procedure, shortened: as §3

[38] = system: E. cloacae ATCC23355; assay: as above; type: cell-based, Enterobacter cloacae
Procedure, shortened: as §3

`CO[C@H]1/C=C/O[C@@]2(C)Oc3c(C)c(O)c4c(O)c(c(/C=N/N5CCN(C)CC5)c(O)c4c3C2=O)NC(=O)/C(C)=C\C=C\[C@H](C)[C@H](O)[C@@H](C)[C@@H](O)[C@@H](C)[C@H](OC(C)=O)[C@@H]1C` [Rifampin] was tested, and the “MIC of antibiotic in the presence of NAB739” value (“MIC of antibiotic … of NAB739” below) ([1]; NAB 739 0 μg/ml) was 12 µg/mL, the “MIC of antibiotic … of NAB739” value ([1]; NAB 739 0.5 μg/ml) was 0.094 µg/mL and the “MIC of antibiotic … of NAB739” value ([1]; NAB 739 1 μg/ml) was 0.016 µg/mL. For the same compound, the “MIC of antibiotic … of NAB739” value ([1]; NAB 739 […]) was 0.38 µg/mL, the “MIC of antibiotic in the presence of 4 μg/ml of NAB 7061” value (from here on “MIC of antibiotic … of NAB 7061”) [2] was greater than 32 µg/mL and the “Sensitization factor to antibiotic (MIC without / with 4 μg/ml of NAB 7061)” value [2] was less than 2. The “MIC of antibiotic … of NAB 7061” value [3] was greater than 32 µg/mL, the “Sensitization factor to antibiotic (MIC without / with 4 μg/ml of NAB 7061)” value [3] was less than 2 and the “MIC of antibiotic … of NAB 7061” value [4] was 12 to 16 µg/mL. The “Sensitization factor to antibiotic (MIC without / with 4 μg/ml of NAB 7061)” value [4] was 2, the “MIC of antibiotic … of NAB 7061” value [5] was 1 to 1.5 µg/mL and the “Sensitization factor to antibiotic (MIC without / with 4 μg/ml of NAB 7061)” value [5] was less than 2. For the same compound, the “MIC of antibiotic … of NAB 7061” value [6] was 2 µg/mL, the “Sensitization factor to antibiotic (MIC without / with 4 μg/ml of NAB 7061)” value [6] was 4-8 and the “MIC of antibiotic … of NAB 7061” value [7] was 16 µg/mL. For the same compound, the “Sensitization factor to antibiotic (MIC without / with 4 μg/ml of NAB 7061)” value [7] was less than 2, the “MIC of antibiotic … of NAB 7061” value [8] was 0.023 to 0.032 µg/mL and the “Sensitization factor to antibiotic (MIC without / with 4 μg/ml of NAB 7061)” value [8] was 500-1000. For the same compound, the “Sensitization factor to antibiotic (MIC without / with 4 μg/ml of NAB 7061)” value [9] was 250-500, the “MIC of antibiotic … of NAB 7061” value [10] was 0.016 to 0.047 µg/mL and the “Sensitization factor to antibiotic (MIC without / with 4 μg/ml of NAB 7061)” value [10] was 250-750. The “MIC of antibiotic … of NAB739” value ([11]; NAB 739 0 μg/ml) was 32 µg/mL, the “MIC of antibiotic … of NAB739” value ([11]; NAB 739 0.5 μg/ml) was 32 µg/mL and the “MIC of antibiotic … of NAB739” value ([11]; NAB 739 1 μg/ml) was 16 µg/mL. For the same compound, the “MIC of antibiotic … of NAB739” value ([11]; NAB 739 2 μg/ml) was 4 µg/mL, the “MIC of antibiotic … of NAB739” value ([11]; NAB 739 […]) was 32 µg/mL and the “MIC of antibiotic … of NAB 7061” value [12] was 0.75 µg/mL. For the same compound, the “Sensitization factor to antibiotic (MIC without / with 4 μg/ml of NAB 7061)” value [12] was greater than 43, the “MIC of antibiotic … of NAB 7061” value [13] was 0.19 to 0.25 µg/mL and the “Sensitization factor to antibiotic (MIC without / with 4 μg/ml of NAB 7061)” value [13] was 170. The “MIC of antibiotic … of NAB 7061” value [14] was 2 to 3 µg/mL, the “Sensitization factor to antibiotic (MIC without / with 4 μg/ml of NAB 7061)” value [14] was 10-20 and the “MIC of antibiotic … of NAB 7061” value [15] was 0.19 µg/mL. For the same compound, the “Sensitization factor to antibiotic (MIC without / with 4 μg/ml of NAB 7061)” value [15] was greater than 170, the “MIC of antibiotic … of NAB 7061” value [16] was 1 to 6 µg/mL and the “Sensitization factor to antibiotic (MIC without / with 4 μg/ml of NAB 7061)” value [16] was less than 2. For the same compound, the “concentration of rifampin needed for the inhibitory effect” value [17] was 10 µg/mL, the “MIC of antibiotic … of NAB 7061” value [18] was 0.032 to 0.19 µg/mL and the “Sensitization factor to antibiotic (MIC without / with 4 μg/ml of NAB 7061)” value [19] was 32. The “Sensitization factor to antibiotic (MIC without / with 4 μg/ml of NAB 7061)” value [20] was 24-32, the “sensitization factors to antibiotic at NAB739 0.5 μg/ml” value [21] was 85-128 and the “MIC of antibiotic … of NAB 7061” value [22] was 0.032 to 0.064 µg/mL. The “MIC of antibiotic … of NAB 7061” value [23] was 0.032 to 0.064 µg/mL, the “Sensitization factor to antibiotic (MIC without / with 4 μg/ml of NAB 7061)” value [23] was 100-250 and the “MIC of antibiotic … of NAB 7061” value [24] was 0.016 to 0.023 µg/mL. The “Sensitization factor to antibiotic (MIC without / with 4 μg/ml of NAB 7061)” value [24] was 200-260, the “MIC of antibiotic … of NAB 7061” value [25] was 0.064 to 0.094 µg/mL and the “Sensitization factor to antibiotic (MIC without / with 4 μg/ml of NAB 7061)” value [25] was 85-94. The “Sensitization factor to antibiotic (MIC without / with 4 μg/ml of NAB 7061)” value [26] was 170-256, the “MIC of antibiotic … of NAB 7061” value [27] was 0.023 to 0.047 µg/mL and the “Sensitization factor to antibiotic (MIC without / with 4 μg/ml of NAB 7061)” value [27] was 170-350. The “MIC of antibiotic … of NAB 7061” value [28] was 0.064 µg/mL, the “MIC of antibiotic … of NAB 7061” value [29] was 0.032 µg/mL and the “MIC of antibiotic … of NAB 7061” value [30] was 0.032 to 0.047 µg/mL. For the same compound, the “Sensitization factor to antibiotic (MIC without / with 4 μg/ml of NAB 7061)” value [30] was 340-500, the “MIC of antibiotic … of NAB 7061” value [31] was 0.032 µg/mL and the “Sensitization factor to antibiotic (MIC without / with 4 μg/ml of NAB 7061)” value [31] was 180-250. For the same compound, the “MIC of antibiotic … of NAB739” value ([32]; NAB 739 0 μg/ml) was 4 µg/mL, the “MIC of antibiotic … of NAB739” value ([32]; NAB 739 0.5 μg/ml) was 0.047 µg/mL and the “MIC of antibiotic … of NAB739” value ([32]; NAB 739 1 μg/ml) was 0.006 µg/mL. For the same compound, the “MIC of antibiotic … of NAB 7061” value [33] was 0.012 to 0.023 µg/mL, the “Sensitization factor to antibiotic (MIC without / with 4 μg/ml of NAB 7061)” value [33] was 700-2000 and the “MIC of antibiotic … of NAB 7061” value [34] was 0.032 to 0.047 µg/mL. For the same compound, the “Sensitization factor to antibiotic (MIC without / with 4 μg/ml of NAB 7061)” value [34] was 680-750, the “MIC of antibiotic … of NAB 7061” value [35] was 0.032 to 0.047 µg/mL and the “Sensitization factor to antibiotic (MIC without / with 4 μg/ml of NAB 7061)” value [35] was 500-1000. For the same compound, the “MIC of antibiotic … of NAB 7061” value [36] was 0.023 µg/mL, the “Sensitization factor to antibiotic (MIC without / with 4 μg/ml of NAB 7061)” value [36] was 1400 and the “MIC of antibiotic … of NAB 7061” value [37] was 0.016 to 0.032 µg/mL. For the same compound, the “Sensitization factor to antibiotic (MIC without / with 4 μg/ml of NAB 7061)” value [37] was 1500, the “MIC of antibiotic … of NAB 7061” value [38] was 0.008 to 0.016 µg/mL and the “Sensitization factor to antibiotic (MIC without / with 4 μg/ml of NAB 7061)” value [38] was 750-1500.
